The text below walks through data of ChEMBL document CHEMBL1201862, “PubChem BioAssay data set” (2004).

Molecules are shown by their SMILES.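 Method: 48-hour compound exposure of cells in 96-well plates, five concentrations, linear interpolation of endpoints. Here, GI50 denotes the concentration required for 50% inhibition of growth.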 Activity calls are given as the source filed them. No stated cut-off is given here; in the data, active = GI50 up to about 1.1 µM and inactive = higher.

Test systems include NCI/ADR-RES; SK-MEL-5; UACC-62; EKVX; SW-620; IGROV-1; HCT-15; SN12C; OVCAR-4; SNB-75; SF-539; OVCAR-3; MDA-MB-435; MCF7; HCC 2998; HT-29; COLO 205; NCI-H226; M14.
Holding throughout (test): NCI-60 cell line screen, 48 h

Regarding `COc1ccc(C[N+](C)(C)N)cc1OC`, the GI50 with NCI/ADR-RES was > 10 µM (inactive); in the experiment with SK-MEL-5 it was > 10 µM (inactive); with UACC-62 it was > 100 µM (inactive); in the experiment with EKVX, > 100 µM (inactive); with SW-620, > 10 µM (inactive); in the experiment on IGROV-1, > 100 µM (inactive). Also, the GI50 in the experiment with HCT-15 was above 10 µM; with SN12C, > 10 µM (inactive); with OVCAR-4, > 10 µM (inactive); in the experiment on SNB-75, > 10 µM (inactive); in the experiment on SF-539 it was > 10 µM (inactive); with OVCAR-3 it was > 10 µM (inactive). The GI50 in the experiment with MDA-MB-435 is > 10 µM (inactive); in the experiment on MCF7, > 10 µM (inactive); in the experiment on HCC 2998 it was > 10 µM (inactive); with HT-29 it was > 10 µM (inactive); in the experiment on COLO 205, > 10 µM (inactive); with NCI-H226, > 100 µM (inactive). In addition, the GI50 in the experiment with M14 was > 10 µM (inactive).
For the compound `CC(C)C/N=C(\N)N=C(N)N`, the GI50 in the experiment with NCI/ADR-RES, in the experiment on SK-MEL-5, in the experiment on UACC-62, with EKVX, in the experiment with SW-620 and in the experiment with IGROV-1 was > 100 µM (inactive) each time. Also, the GI50 in the experiment with HCT-15 is above 100 µM; in the experiment on SN12C, > 100 µM (inactive); in the experiment with OVCAR-4 it was > 100 µM (inactive); in the experiment on SNB-75, > 100 µM (inactive); in the experiment with SF-539, > 100 µM (inactive); in the experiment on OVCAR-3 it was > 100 µM (inactive). Also, the GI50 in the experiment on MDA-MB-435, in the experiment on MCF7, with HCC 2998, in the experiment on HT-29, in the experiment on COLO 205 and with NCI-H226 was > 100 µM (inactive) in each case. Further, in the experiment with M14, the GI50 was > 100 µM (inactive).
As for `Clc1ccc(-c2nn3c(CCCCCCCCc4nnc5sc(-c6ccc(Cl)cc6)nn45)nnc3s2)cc1`, the GI50 was 21 µM (inactive) in the experiment with NCI/ADR-RES; 13.8 µM (inactive) in the experiment with SK-MEL-5; 32.4 µM (inactive) with UACC-62; 20 µM (inactive) in the experiment with EKVX; 29.2 µM (inactive) in the experiment on SW-620; 22.8 µM (inactive) in the experiment on IGROV-1. The GI50 with HCT-15 is 26.3 µM; with SN12C, 17.5 µM (inactive); with OVCAR-4, 8.85 µM (inactive); in the experiment on SNB-75 it was 19.9 µM (inactive); in the experiment on SF-539, 19.9 µM (inactive); in the experiment with OVCAR-3 it was 19.8 µM (inactive). Besides, the GI50 in the experiment with MDA-MB-435 is 17 µM (inactive); with MCF7, 5.81 µM (inactive); with HCC 2998, 48.3 µM (inactive); in the experiment with HT-29, 12.4 µM (inactive); with COLO 205, 26.6 µM (inactive); in the experiment with NCI-H226, 25.6 µM (inactive). In addition, the GI50 in the experiment on M14 was 18.7 µM (inactive).
Consider `CC/C(=N/O)c1ccc(Br)s1`, for which the GI50 in the experiment on NCI/ADR-RES is > 100 µM (inactive); with SK-MEL-5 it was > 100 µM (inactive); with UACC-62, 84.1 µM (inactive); with EKVX, 5.61 µM (inactive); with SW-620 it was > 100 µM (inactive); with IGROV-1, 55.6 µM (inactive). The GI50 in the experiment with HCT-15 was above 100 µM; in the experiment on SN12C it was > 100 µM (inactive); in the experiment with OVCAR-4 it was > 100 µM (inactive); with SNB-75, 67.8 µM (inactive); in the experiment with SF-539, 27.1 µM (inactive); with OVCAR-3, > 100 µM (inactive). Moreover, the GI50 in the experiment on MDA-MB-435, with MCF7, in the experiment on HCC 2998, with HT-29, in the experiment with COLO 205 and with NCI-H226 was > 100 µM (inactive) each time. Also, in the experiment on M14, the GI50 is > 100 µM (inactive).
On to `O=C(NCCN1CCCC1)c1cn2c(ccc3sc4ccccc4c(=O)c32)n1`, for which the GI50 in the experiment with NCI/ADR-RES was 13.3 µM (inactive); in the experiment with SK-MEL-5, 10.3 µM (inactive); with UACC-62, 17.1 µM (inactive); in the experiment on EKVX it was 15.6 µM (inactive); in the experiment on SW-620, 1.51 µM (inactive); with IGROV-1, 11.7 µM (inactive). The GI50 was 10.9 µM in the experiment with HCT-15; 10.9 µM (inactive) in the experiment with SN12C; 12.3 µM (inactive) in the experiment on OVCAR-4; 19.1 µM (inactive) in the experiment with SNB-75; 14.9 µM (inactive) in the experiment on SF-539; 14.7 µM (inactive) in the experiment with OVCAR-3. The GI50 in the experiment with MDA-MB-435 was 21 µM (inactive); in the experiment on MCF7 it was 2.77 µM (inactive); in the experiment on HCC 2998, 6.56 µM (inactive); in the experiment with HT-29, 3.18 µM (inactive); in the experiment on COLO 205 it was 11.7 µM (inactive); with NCI-H226, 17 µM (inactive). Moreover, the GI50 in the experiment with M14 was 15.6 µM (inactive).
With `CSc1nc(SC)c2c(C)c(Br)[nH]c2n1`, the GI50 in the experiment with NCI/ADR-RES is > 100 µM (inactive); in the experiment on SK-MEL-5, > 100 µM (inactive); with UACC-62 it was > 100 µM (inactive); in the experiment on EKVX, 70.5 µM (inactive); in the experiment on SW-620, > 100 µM (inactive); in the experiment on IGROV-1 it was > 100 µM (inactive). Further, the GI50 in the experiment with HCT-15 is above 100 µM; in the experiment on SN12C, > 100 µM (inactive); with OVCAR-4, > 100 µM (inactive); with SNB-75, > 100 µM (inactive); with SF-539, 54.6 µM (inactive); in the experiment on OVCAR-3, > 100 µM (inactive). The GI50 with MDA-MB-435 is > 100 µM (inactive); in the experiment with MCF7, 30.9 µM (inactive); in the experiment with HCC 2998, > 100 µM (inactive); with HT-29, > 100 µM (inactive); in the experiment with COLO 205 it was > 100 µM (inactive); in the experiment with NCI-H226 it was > 100 µM (inactive). Further, in the experiment with M14, the GI50 is > 100 µM (inactive).
Turning to `COc1ccc(O[C@H](CO)C[C@@H]2COC(C)(C)O2)cc1`, the GI50 in the experiment with NCI/ADR-RES, in the experiment with SK-MEL-5, in the experiment with UACC-62, with EKVX, in the experiment on SW-620 and with IGROV-1 was > 100 µM (inactive) in each case. For the same compound, the GI50 was above 100 µM in the experiment on HCT-15; > 100 µM (inactive) in the experiment on SN12C; > 100 µM (inactive) with OVCAR-4; > 100 µM (inactive) in the experiment on SNB-75; > 100 µM (inactive) with SF-539; > 100 µM (inactive) in the experiment with OVCAR-3. Besides, the GI50 with MDA-MB-435, with MCF7, with HCC 2998, in the experiment with HT-29, in the experiment with COLO 205 and with NCI-H226 was > 100 µM (inactive) in each case. Also, in the experiment on M14, the GI50 was > 100 µM (inactive).
For the compound `CN1C(=O)C23CC4=CC=CC(O)C4N2C(=O)C1(CO)SS3` (configuration not stated), the GI50 is 0.0224 µM (active) in the experiment on NCI/ADR-RES; 0.173 µM (active) with SK-MEL-5; 0.179 µM (active) with UACC-62; 0.368 µM (active) with EKVX; 0.237 µM (active) in the experiment with SW-620; 0.145 µM (active) in the experiment on IGROV-1. Moreover, the GI50 is 0.0845 µM in the experiment with HCT-15; 0.0705 µM (active) in the experiment with SN12C; 0.223 µM (active) with OVCAR-4; 0.21 µM (active) with SNB-75; 0.0204 µM (active) in the experiment with SF-539; 0.199 µM (active) with OVCAR-3. The GI50 in the experiment with MDA-MB-435 is 0.224 µM (active); in the experiment with MCF7, 0.16 µM (active); in the experiment on HCC 2998, 0.155 µM (active); in the experiment on HT-29 it was 0.0188 µM (active); in the experiment with COLO 205, 0.0524 µM (active); with NCI-H226, 0.0891 µM (active). Also, the GI50 in the experiment on M14 was 0.0506 µM (active).
